Earlier results in patent publication US20230320397A1, “EXTRACTS FOR HEALTH SUPPLEMENTS” (EXTENDED LONGEVITY, priority 2022, published 2023).

Settings: by the use of heat

COc1cc(/C=C/C(=O)CC(=O)/C=C/c2ccc(O)c(OC)c2)ccc1O [curcumin]
increased solubility: 12 fold
